Measured values published in the NIST ThermoML archive (doi:10.1016/j.jct.2015.09.012).

What was measured:
[1] = molar heat capacity at constant pressure; conditions: Liquid
[2] = 298.15 K; 101.33 kPa; Liquid; Vibrating tube method
[3] = molar heat capacity at constant pressure; xn = mol fraction of the nth substance listed; conditions: 100 kPa, Liquid, Large sample (1 g) DSC

CC12CCC(CC1)C(C)(C)O2 [1,3,3-trimethyl-2-oxabicyclo[2.2.2]octane]
[1]
Conditions | molar heat capacity at constant pressure [J/K/mol]
293.26 K, 101.33 kPa, Small sample (50 mg) DSC | 266.9
303.48 K, 101.33 kPa, Small sample (50 mg) DSC | 273
304.7 K, 100 kPa, Large sample (1 g) DSC | 273.3
309.6 K, 100 kPa, Large sample (1 g) DSC | 276.4
313.71 K, 101.33 kPa, Small sample (50 mg) DSC | 279.5
314.6 K, 100 kPa, Large sample (1 g) DSC | 279.5
319.5 K, 100 kPa, Large sample (1 g) DSC | 282.6
323.93 K, 101.33 kPa, Small sample (50 mg) DSC | 285.2
324.5 K, 100 kPa, Large sample (1 g) DSC | 285.1
334.16 K, 101.33 kPa, Small sample (50 mg) DSC | 290.8
344.38 K, 101.33 kPa, Small sample (50 mg) DSC | 297.7

Conditions | mass density [kg/m3]
[2] | 920.51

CC12CCC(CC1)C(C)(C)O2 [1,3,3-trimethyl-2-oxabicyclo[2.2.2]octane] + CCO
molar heat capacity at constant pressure [J/K/mol], [3]
Conditions | 304.7 K | 309.6 K | 314.6 K | 319.5 K | 324.5 K
x1 = 0.0506 | 123.9 | 126.2 | 128.6 | 131.1 | 133.5
x1 = 0.099 | 132 | 134.6 | 137.1 | 139.7 | 142.1
x1 = 0.1999 | 149 | 151.8 | 154.6 | 157.1 | 160
x1 = 0.3007 | 166 | 169 | 171.8 | 174.9 | 177.7
x1 = 0.3956 | 181.7 | 184.9 | 188.1 | 191.1 | 194.1
x1 = 0.5002 | 199.4 | 202.5 | 205.5 | 208.5 | 211.3
x1 = 0.5975 | 214.3 | 217.4 | 221.5 | 224.5 | 227.4
x1 = 0.7017 | 231.6 | 235.1 | 238 | 241.2 | 244.1
x1 = 0.8065 | 247.2 | 250.5 | 253.6 | 256.7 | 259.3
x1 = 0.8964 | 259.8 | 263.7 | 267 | 269.9 | 272.5
x1 = 0.9501 | 267 | 269.9 | 273.4 | 275.8 | 279
x1 = 1 | 273.3 | 276.4 | 279.5 | 282.6 | 285.1

CCO [ethanol]
[1], 100 kPa, Large sample (1 g) DSC
Conditions | molar heat capacity at constant pressure [J/K/mol]
304.7 K | 115.3
309.6 K | 117.3
314.6 K | 119.6
319.5 K | 121.9
324.5 K | 124.2

Conditions | mass density [kg/m3]
[2] | 785.2

CCO [ethanol] + CC12CCC(CC1)C(C)(C)O2
[3], x2 = 0
Conditions | molar heat capacity at constant pressure [J/K/mol]
304.7 K | 115.3
309.6 K | 117.3
314.6 K | 119.6
319.5 K | 121.9
324.5 K | 124.2
